According to patent US8956997B2, “Plant conditioner composition and method” (priority 2010, dated 2015):

Columns and labels:
plants = experiment: Plant size, produce and plant damage in indoor and outdoor gardens; type: in vivo; settings: more H202 and tea tree oil combinations added to the mix
Description: This product was tested in the Inventor's garden. At the time the garden was infested with spider mites and thrips. There were cob webs and major plant damage. The option was to destroy the garden. It seemed hopeless. […] Originally the solution was too strong, and it severely damaged the plants and killed every living thing on the plants as well as the plants. After going back and testing each of the ingredients separately (a few weeks at a time over the course of five years) the Inventor concluded how much of each ingredient to use per gallon. After that, the Inventor combined the sugars and started adding each ingredient while testing shelf life and refrigerator life of Dragon Juice 50. […] The concentrate variations have been tested in indoor and outdoor gardens. The results have been fantastic as all of the products produced have been getting outstanding customer approval for quality, and flavor. […] It also helps to keep the plant healthier from the stress of the concentrated oils. The salt (see below) is another last minute ingredient included after studying and talking with a state health inspector. The Inventor realized that the salt breaks down selenium in the water so the plant can use the nutrients and convert the use of sugars more effectively. As the H202 takes away microorganisms, the vitamins, and carbohydrates rebuild a healthy environment for the plants new growth. […]

thrips = experiment: Thrips kill test on isolated thrips and treated plants; type: in vivo
Source text: Obvious testing by using a loop and magnifier concluded that the Dragon Juice 50 kills 100% of the spider mites, even after 6 weeks in the refrigerator. […] The Inventor tested more H202 and the tea tree oil combinations.

Question: Which results are given for `OO` [H202, hydrogen peroxide]?
Answer: plant damage (leaves) (plants): started burning the leaves; effect on thrips (thrips): killed the thrips
